Key:
Format in all cases: in vivo
[1] = test system: Plutella xylostella (diamond back moth); assay: Example B3: activity against Plutella xylostella, artificial diet; settings: 120 h, application rate of 200 ppm, L2 larvae, 5 days after infestation, read-out: effect in at least one of the two categories (mortality or growth inhibition)
Description: Example B3: Activity Against Plutella xylostella (Diamond Back Moth)
24-well microtiter plates with artificial diet were treated with aqueous test solutions prepared from 10,000 ppm DMSO stock solutions by pipetting. After drying, the plates were infested with L2 larvae (10 to 15 per well). The samples were assessed for mortality and growth inhibition in comparison to untreated samples 5 days after infestation. The following compound gave an effect of at least 80% in at least one of the two categories (mortality or growth inhibition) at an application rate of 200 ppm: P1, P4, P5, P6, P8, P9, P10, P11, P12 and P13.

[2] = test system: Spodoptera littoralis (Egyptian cotton leaf worm); assay: Example B2: activity against Spodoptera littoralis, systemic via lettuce on agar; settings: 144 h, application rate of 12.5 ppm, Spodoptera eggs, 6 days after infestation, read-out: control in at least one of the three categories (mortality, anti-feedancy or growth inhibition)
Text: Example B2: Activity Against Spodoptera Littoralis (Egyptian Cotton Leaf Worm)
Test compounds were applied by pipette from 10,000 ppm DMSO stock solutions into 24-well plates and mixed with agar. Lettuce seeds were placed on the agar and the multi well plate was closed by another plate which contains also agar. After 7 days the roots have absorbed the compound and the lettuce has grown into the lid plate. The lettuce leafs were now cut off into the lid plate. Spodoptera eggs were pipetted through a plastic stencil on a humid gel blotting paper and the plate closed with it. The samples were assessed for mortality, anti-feedant effect and growth inhibition in comparison to untreated samples 6 days after infestation. The following compound gave an effect of at least 80% control in at least one of the three categories (mortality, anti-feedancy or growth inhibition) at an application rate of 12.5 ppm: P1, P4, P9, P12 and P13.

[3] = test system: Myzus persicae (green peach aphid); assay: Example B6: activity against Myzus persicae, sucrose solution through Parafilm; settings: 120 h, test rate of 12 ppm, 5 days after infestation
Text: Example B6: Activity Against Myzus persicae (Green Peach Aphid)
Test compounds from 10,000 ppm DMSO stock solutions were applied by pipette into 24-well microtiter plates and mixed with sucrose solution. The plates were closed with a stretched Parafilm. A plastic stencil with 24 holes was placed onto the plate and infested pea seedlings were placed directly on the Parafilm. The infested plate was closed with a gel blotting paper and another plastic stencil and then turned upside down. The samples were assessed for mortality 5 days after infestation.

[4] = test system: Spodoptera littoralis (Egyptian cotton leaf worm); assay: Example B1: activity against Spodoptera littoralis, cotton leaf disc spray; settings: foliar, 72 h, application rate of 200 ppm, cotton leaf discs, L1 larvae, 3 days after infestation, read-out: control in at least one of the three categories (mortality, anti-feedancy or growth inhibition)
Description: Example B1: Activity Against Spodoptera littoralis (Egyptian Cotton Leaf Worm)
Cotton leaf discs were placed on agar in 24-well microtiter plates and sprayed with aqueous test solutions prepared from 10,000 ppm DMSO stock solutions. After drying the leaf discs were infested with five L1 larvae. The samples were assessed for mortality, anti-feedant effect, and growth inhibition in comparison to untreated samples 3 days after infestation. Control of Spodoptera littoralis by a test sample is when at least one of mortality, anti-feedant effect, and growth inhibition is higher than the untreated sample. The following compound gave an effect of at least 80% control in at least one of the three categories (mortality, anti-feedancy or growth inhibition) at an application rate of 200 ppm: P1, P4, P5, P8, P9, P10, P12 and P13.

[5] = test system: Diabrotica balteata (corn root worm); assay: Example B4: activity against Diabrotica balteata, maize sprouts spray; settings: 96 h, application rate of 200 ppm, L2 larvae, 4 days after infestation, read-out: effect in at least one of the two categories (mortality or growth inhibition)
Description: Example B4: Activity Against Diabrotica balteata (Corn Root Worm)
Maize sprouts, placed on an agar layer in 24-well microtiter plates were treated with aqueous test solutions prepared from 10,000 ppm DMSO stock solutions by spraying. After drying, the plates were infested with L2 larvae (6 to 10 per well). The samples were assessed for mortality and growth inhibition in comparison to untreated samples 4 days after infestation. The following compounds gave an effect of at least 80% in at least one of the two categories (mortality or growth inhibition) at an application rate of 200 ppm: P1, P4, P5, P6, P8, P9, P10, P11, P12 and P13.

[6] = test system: Myzus persicae (green peach aphid); assay: Example B5: activity against Myzus persicae, sunflower leaf disc spray; settings: foliar, 144 h, application rate of 200 ppm, sunflower leaf discs, mixed ages, 6 days after infestation
Description: Example B5: Activity Against Myzus persicae (Green Peach Aphid)
Sunflower leaf discs were placed on agar in a 24-well microtiter plate and sprayed with aqueous test solutions prepared from 10,000 ppm DMSO stock solutions. After drying, the leaf discs were infested with an aphid population of mixed ages. The samples were assessed for mortality 6 days after infestation.

[7] = test system: Euschistus heros (neotropical brown stink bug); assay: Example B8: activity against Euschistus heros, soybean leaf spray; settings: 120 h, application rate of 200 ppm, N-2 nymphs, 5 days after infestation
Description: Example B8: Activity Against Euschistus heros (Neotropical Brown Stink Bug)
Soybean leaf on agar in 24-well microtiter plates were sprayed with aqueous test solutions prepared from 10,000 ppm DMSO stock solutions. After drying the leaf were infested with N-2 nymphs. The samples were assessed for mortality 5 days after infestation.

CCSc1cc(C2CC2)cnc1-c1nc2cc(C(F)(F)F)cnc2n1C [Compound P1, 2-(5-cyclopropyl-3-ethylsulfanyl-2-pyridyl)-3-methyl-6-(trifluoromethyl)imidazo[4,5-b]pyridine]
≥ 80%: percent effect (mortality or growth inhibition) at 200 ppm [1] | control at 12.5 ppm [2] | mortality at 12 ppm [3] | percent control (mortality, anti-feedancy or growth inhibition) at 200 ppm [4] | percent effect (mortality or growth inhibition) at 200 ppm [5] | mortality at 200 ppm [6] | mortality at 200 ppm [7]

Source: patent US11072608B2, “Pesticidally active heterocyclic derivatives with sulphur containing substituents” (SYNGENTA PARTICIPATIONS AG, priority 2014, dated 2021)
